The target in the assay is T1, Cholesteryl ester transfer protein (Homo sapiens, UniProt P11597).
T1 sequence (P11597 whole entry): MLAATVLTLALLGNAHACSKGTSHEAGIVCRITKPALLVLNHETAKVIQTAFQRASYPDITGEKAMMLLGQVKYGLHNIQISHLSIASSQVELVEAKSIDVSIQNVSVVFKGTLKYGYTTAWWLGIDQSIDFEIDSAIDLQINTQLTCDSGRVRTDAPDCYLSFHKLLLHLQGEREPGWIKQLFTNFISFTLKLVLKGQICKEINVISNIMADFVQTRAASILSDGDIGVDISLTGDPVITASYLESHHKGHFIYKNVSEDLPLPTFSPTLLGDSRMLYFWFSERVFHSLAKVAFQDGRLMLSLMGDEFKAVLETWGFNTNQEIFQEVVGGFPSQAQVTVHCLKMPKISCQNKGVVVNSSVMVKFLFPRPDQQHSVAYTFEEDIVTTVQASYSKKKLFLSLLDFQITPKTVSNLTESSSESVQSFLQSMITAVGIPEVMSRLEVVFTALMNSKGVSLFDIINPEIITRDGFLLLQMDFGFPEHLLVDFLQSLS
In words: Inhibition of CETP in human plasma assessed as reduction in fluorescent intensity by fluorescence analysis.
The term IC50 denotes the concentration that inhibits the measured activity by half. Consider `CC[C@@H]1C[C@H](N(Cc2cc(Cl)cc(Cc3cncc(C(F)(F)F)c3)c2)c2nnn(C)n2)c2nc(C(F)(F)F)ccc2N1C(=O)OC(C)C`, for which the IC50 is 207 nM. The figure for `CC[C@@H]1C[C@H](N(Cc2cc(C(F)(F)F)cc(C(F)(F)F)c2)C(C)=O)c2nc(C(F)(F)F)ccc2N1C(=O)OC(C)C` (racemic) is 396 nM; for `CC[C@@H]1C[C@H](N(Cc2cc(C(F)(F)F)cc(C(F)(F)F)c2)c2nnn(C)n2)c2nc(OC)c(C)cc2N1C(=O)OC(C)C` (racemic) it is 38.4 nM; for `CC[C@@H]1C[C@H](N(Cc2cc(C(F)(F)F)cc(C(F)(F)F)c2)c2nnn(C)n2)c2nc(C(F)(F)F)ccc2N1C(=O)OCCO` it is 108 nM. The figure for `Cc1cc(C)c2c(c1)[C@@H](N(Cc1cc(C(F)(F)F)cc(C(F)(F)F)c1)c1nnn(C)n1)CCCN2C[C@H]1CC[C@H](C(=O)O)CC1` [EVACETRAPIB] is 26 nM.

Consider `CC[C@@H]1C[C@H](N(Cc2cc(C(F)(F)F)cc(C(F)(F)F)c2)c2cc(C)n[nH]2)c2nc(C(F)(F)F)ccc2N1C(=O)OC(C)C` (racemic), for which the IC50 was 203 nM. Turning to `CC[C@@H]1C[C@H](N(Cc2cc(C(F)(F)F)cc(C(F)(F)F)c2)c2nnn[nH]2)c2nc(C(F)(F)F)ccc2N1C(=O)OC(C)C` (racemic), the IC50 is more than 50000 nM.

With `CC[C@@H]1C[C@H](N(Cc2cc(C(F)(F)F)cc(C(F)(F)F)c2)c2noc(C)n2)c2nc(C(F)(F)F)ccc2N1C(=O)OC(C)C` (racemic), the IC50 is 74 nM. As for `CC[C@@H]1C[C@H](N(Cc2cc(C(F)(F)F)cc(C(F)(F)F)c2)c2nnn(C)n2)c2nc(C(F)(F)F)ccc2N1C(=O)OCCN(C)C`, the figure is 572 nM; as for `CC[C@@H]1C[C@H](N(Cc2cc(C(F)(F)F)cc(C(F)(F)F)c2)c2nnn(C)n2)c2nc(C(F)(F)F)ccc2N1C(=O)OCCc1nn[nH]n1`, 488 nM.

For `CC[C@@H]1C[C@H](N(Cc2cc(Cl)cc(C(F)(F)F)c2)c2nnn(C)n2)c2nc(C(F)(F)F)ccc2N1C(=O)OC(C)C`, the IC50 was 20 nM. As for `CCC1CC(N(Cc2cc(C(F)(F)F)cc(C(F)(F)F)c2)C(C)=O)c2sccc2N1C(=O)OC(C)C` (centres undefined), the figure is 46000 nM. The figure for `CC[C@@H]1C[C@H](N(Cc2cc(C(F)(F)F)cc(C(F)(F)F)c2)c2nnn(C)n2)c2nc(C(F)(F)F)ccc2N1CC(C)C` is 205 nM; for `CC[C@@H]1C[C@H](N(Cc2cc(C(F)(F)F)cc(C(F)(F)F)c2)c2nnn(C)n2)c2nc(Br)ccc2N1C(=O)OC(C)C` (racemic) it is 47 nM; for `CC[C@@H]1C[C@H](N(Cc2cc(C(F)(F)F)cc(C(F)(F)F)c2)c2nnn(C)n2)c2nc(N(C)C)ccc2N1C(=O)OC(C)C` it is 31 nM. On to `CCC1CC(N(Cc2cc(C(F)(F)F)cc(C(F)(F)F)c2)C(C)=O)c2ccc(C)nc2N1C(=O)OC(C)C` (centres undefined), for which the IC50 was determined as 44100 nM.

Consider `CC[C@@H]1C[C@H](N(Cc2cc(C(F)(F)F)cc(C(F)(F)F)c2)c2nnn(C)n2)c2nc(N)c(C)cc2N1C(=O)OC(C)C` (racemic), for which the IC50 came out at 106 nM.

Turning to `CC[C@@H]1C[C@H](N(Cc2cc(C(F)(F)F)cc(C(F)(F)F)c2)c2nnn(C)n2)c2nc(OC)ccc2N1C(=O)OC(C)C` (racemic), the IC50 came out at 134 nM. As for `CC[C@@H]1C[C@H](N(Cc2cc(C(F)(F)F)cc(C(F)(F)F)c2)C(C)=O)c2nc(C)ccc2N1C(=O)OC(C)C` (racemic), the figure is 980 nM; as for `CC[C@@H]1C[C@H](N(Cc2cc(C(F)(F)F)cc(C(F)(F)F)c2)c2nnn(C)n2)c2nc(N3CCNCC3)ccc2N1C(=O)OC(C)C`, more than 50000 nM; as for `CC[C@@H]1C[C@H](N(Cc2cc(C(F)(F)F)cc(C(F)(F)F)c2)c2nnn(C)n2)c2nc(C(F)(F)F)ccc2N1C(=O)OCC(C)(C)C(=O)O`, 139 nM. As for `CC[C@@H]1C[C@H](N(Cc2cc(C(F)(F)F)cc(C(F)(F)F)c2)c2nnn(C)n2)c2nc(C(F)(F)F)ccc2N1C(=O)c1c(C)cnn1C`, the figure is 193 nM. As for `CC[C@@H]1C[C@H](N(Cc2cc(Cl)cc(C(F)(F)F)c2)c2nnn(C)n2)c2nc(C)ccc2N1C(=O)OC(C)C`, the figure is 12 nM; as for `CC[C@@H]1C[C@H](N(Cc2cc(C(F)(F)F)cc(C(F)(F)F)c2)c2nnn(C)n2)c2nc(C(F)(F)F)ccc2N1C(=O)C(C)C`, 55 nM. With `CC[C@@H]1C[C@H](N(Cc2cc(C(F)(F)F)cc(C(F)(F)F)c2)c2nnn(C)n2)c2nc(N3CCOCC3)ccc2N1C(=O)OC(C)C`, the IC50 worked out at 25000 nM. The figure for `CC[C@@H]1C[C@H](N(Cc2cc(C(F)(F)F)cc(C(F)(F)F)c2)c2nnn(C)n2)c2nc(C(F)(F)F)ccc2N1CCC(C)C` is 825 nM. The figure for `CC[C@H]1C[C@@H](N(Cc2cc(C(F)(F)F)cc(C(F)(F)F)c2)c2nnn(C)n2)c2nc(C)ccc2N1C(=O)OC(C)C` is 50000 nM; for `CC[C@H]1C[C@@H](N(Cc2cc(C(F)(F)F)cc(C(F)(F)F)c2)c2nnn(C)n2)c2nc(C(F)(F)F)ccc2N1C(=O)OC(C)C` it is 7420 nM; for `CC[C@@H]1C[C@H](N(Cc2cc(C(F)(F)F)cc(C(F)(F)F)c2)C(C)=O)c2nc(N(C)C)ccc2N1C(=O)OC(C)C` (racemic) it is 948 nM. The figure for `CC[C@@H]1C[C@H](N(Cc2cc(F)cc(C(F)(F)F)c2)c2nnn(C)n2)c2nc(C)ccc2N1C(=O)OC(C)C` is 30 nM; for `CC[C@@H]1C[C@H](N(Cc2cc(Cl)cc(Cl)c2)c2nnn(C)n2)c2nc(C)ccc2N1C(=O)OC(C)C` it is 24 nM. Consider `CC[C@@H]1C[C@H](N(Cc2cc(C(F)(F)F)cc(C(F)(F)F)c2)c2nnn(C)n2)c2nc(C)ccc2N1C(=O)OC(C)C` (racemic), for which the IC50 is 61 nM. As for `CC[C@@H]1C[C@H](N(Cc2cc(C(F)(F)F)cc(C(F)(F)F)c2)c2nnn(C)n2)c2nc(C(F)(F)F)ccc2N1C(=O)OCCN1CCN(C)CC1`, the IC50 is 5730 nM. The figure for `CC[C@@H]1C[C@H](N(Cc2cc(C(F)(F)F)cc(C(F)(F)F)c2)c2nnn(C)n2)c2nc(C(F)(F)F)ccc2N1C(=O)OC1CCN(C)CC1` is 72 nM; for `CC[C@@H]1C[C@H](N(Cc2cc(C(F)(F)F)cc(C(F)(F)F)c2)c2nnn(C)n2)c2nc(C(F)(F)F)ccc2N1C(=O)OC` it is 197 nM.

In the case of `CC[C@@H]1C[C@H](N(Cc2cc(C(F)(F)F)cc(C(F)(F)F)c2)c2nnn(C)n2)c2nc(N)ccc2N1C(=O)OC(C)C`, the IC50 amounted to 98 nM.

For the compound `CC[C@@H]1C[C@H](N(Cc2cc(C(F)(F)F)cc(C(F)(F)F)c2)c2nnn(C)n2)c2nc(C(F)(F)F)ccc2N1C(=O)OCCN1CCOCC1`, the IC50 was found to be 2110 nM. The figure for `CC(=O)N(Cc1cc(C(F)(F)F)cc(C(F)(F)F)c1)[C@H]1C[C@@H](C)N(C(=O)OC(C)C)c2ccc(C(F)(F)F)nc21` (racemic) is 1050 nM; for `CC[C@@H]1C[C@H](N(Cc2cc(C(F)(F)F)cc(C(F)(F)F)c2)c2nnn(CCN)n2)c2nc(C(F)(F)F)ccc2N1C(=O)OC(C)C` (racemic) it is 66 nM. As for `CC[C@@H]1C[C@H](N(Cc2cc(C(F)(F)F)cc(C(F)(F)F)c2)C(C)=O)c2nc(Br)ccc2N1C(=O)OC(C)C` (racemic), the figure is 1300 nM; as for `CC[C@@H]1C[C@H](N(Cc2cc(C#N)cc(C(F)(F)F)c2)c2nnn(C)n2)c2nc(C)ccc2N1C(=O)OC(C)C`, 21 nM; as for `CC[C@@H]1C[C@H](N(Cc2cc(C(F)(F)F)cc(C(F)(F)F)c2)c2nnn(C)n2)c2nc(C(F)(F)F)ccc2N1C(=O)OC1CCOCC1`, 66 nM. The figure for `CCOC(=O)N1c2c(C)cc(C(F)(F)F)nc2[C@@H](N(Cc2cc(C(F)(F)F)cc(C(F)(F)F)c2)c2nnn(C)n2)C[C@H]1CC` (racemic) is 24 nM; for `CC[C@@H]1C[C@H](N(Cc2cc(C(F)(F)F)cc(C(F)(F)F)c2)c2nnn(CCO)n2)c2nc(C(F)(F)F)ccc2N1C(=O)OC(C)C` (racemic) it is 44 nM; for `CCNc1ccc2c(n1)[C@@H](N(Cc1cc(C(F)(F)F)cc(C(F)(F)F)c1)c1nnn(C)n1)C[C@@H](CC)N2C(=O)OC(C)C` it is 591 nM.

Consider `CC[C@@H]1C[C@H](N(Cc2cc(C(F)(F)F)cc(C(F)(F)F)c2)c2nnn(C)n2)c2nc(C(F)(F)F)ccc2N1C(=O)OC(C)C` (racemic), for which the 50% inhibitory concentration (IC50) came to 49 nM. As for `CCCC(=O)N1c2ccc(C(F)(F)F)nc2[C@@H](N(Cc2cc(C(F)(F)F)cc(C(F)(F)F)c2)c2nnn(C)n2)C[C@H]1CC`, the figure is 114 nM; as for `CCOC(=O)N1c2ccc(C(F)(F)F)nc2[C@@H](N(Cc2cc(C(F)(F)F)cc(C(F)(F)F)c2)c2nnn(C)n2)C[C@H]1CC`, 29 nM; as for `CC[C@@H]1C[C@H](N(Cc2cc(C(F)(F)F)cc(C(F)(F)F)c2)c2nnn(C)n2)c2nc(N3CCCC3)ccc2N1C(=O)OC(C)C`, 471 nM.

Turning to `CC[C@@H]1C[C@H](N(C#N)Cc2cc(C(F)(F)F)cc(C(F)(F)F)c2)c2nc(C(F)(F)F)ccc2N1C(=O)OC(C)C` (racemic), the IC50 was more than 5000 nM.

For the compound `CC[C@@H]1C[C@H](N(Cc2cc(C(F)(F)F)cc(C(F)(F)F)c2)c2nnnn2C)c2nc(C(F)(F)F)ccc2N1C(=O)OC(C)C` (racemic), the IC50 is more than 50000 nM. As for `CC[C@@H]1C[C@H](N(Cc2cc(C(F)(F)F)cc(C(F)(F)F)c2)c2cc(C)no2)c2nc(C(F)(F)F)ccc2N1C(=O)OC(C)C` (racemic), the figure is 154 nM; as for `CC(=O)N(Cc1cc(C(F)(F)F)cc(C(F)(F)F)c1)[C@H]1C[C@@H](C2CC2)N(C(=O)OC(C)C)c2ccc(C(F)(F)F)nc21` (racemic), 980 nM; as for `CC[C@@H]1C[C@H](N(Cc2cc(C(F)(F)F)cc(C(F)(F)F)c2)C(C)=O)c2nc(OC)ccc2N1C(=O)OC(C)C` (racemic), 487 nM.
